The record followed here is the NIST ThermoML archive (doi:10.1021/je400803f).

Molecules are shown by their SMILES. Numbers after ± are expanded uncertainties.

The conditions of the series: 101.33 kPa, Liquid, Vibrating tube method.

The mass density is the mass of a sample divided by its volume.

Turning to `CN(C)C=O` [dimethylformamide], the mass density worked out at 948.72 ± 0.23 kg/m3 (293.15 K); 943.86 ± 0.23 kg/m3 (298.15 K); 939 ± 0.23 kg/m3 (303.15 K); 934.08 ± 0.23 kg/m3 (308.15 K); 929.13 ± 0.23 kg/m3 (313.15 K); 924.06 ± 0.23 kg/m3 (318.15 K). For the same compound, for the setting “323.15 K”, the mass density was 918.96 ± 0.23 kg/m3.
For `CCNC=O` [N-ethylformamide], the mass density reads like this: (293.15 K) 951.59 ± 0.07 kg/m3; (298.15 K) 947.48 ± 0.07 kg/m3; (303.15 K) 943.29 ± 0.07 kg/m3; (308.15 K) 939.04 ± 0.07 kg/m3; (313.15 K) 934.78 ± 0.07 kg/m3; (318.15 K) 930.45 ± 0.07 kg/m3. In addition, under “323.15 K”, the mass density was determined as 926.06 ± 0.08 kg/m3.
On to `CNC=O` [N-methylformamide], for which the mass density is 1003.35 ± 0.23 kg/m3 (293.15 K); 998.91 ± 0.23 kg/m3 (298.15 K); 994.49 ± 0.23 kg/m3 (303.15 K); 990.01 ± 0.23 kg/m3 (308.15 K); 985.47 ± 0.23 kg/m3 (313.15 K); 980.88 ± 0.23 kg/m3 (318.15 K). Also, for the setting “323.15 K”, the mass density came out at 976.24 ± 0.23 kg/m3.
As for `CC(=O)N(C)C` [N,N-dimethylethanamide], the mass density runs as follows: (293.15 K) 940.92 ± 0.23 kg/m3; (298.15 K) 936.3 ± 0.23 kg/m3; (303.15 K) 931.62 ± 0.23 kg/m3; (308.15 K) 926.89 ± 0.23 kg/m3; (313.15 K) 922.09 ± 0.23 kg/m3; (318.15 K) 917.23 ± 0.23 kg/m3. For the same compound, the mass density (323.15 K) is on record as 912.23 ± 0.23 kg/m3.
Turning to `CCCCN(C=O)CCCC` [N,N-dibutylformamide], the mass density was 879.05 ± 0.23 kg/m3 (293.15 K); 875.12 ± 0.23 kg/m3 (298.15 K); 871.17 ± 0.23 kg/m3 (303.15 K); 867.15 ± 0.23 kg/m3 (308.15 K); 863.11 ± 0.23 kg/m3 (313.15 K); 859.01 ± 0.23 kg/m3 (318.15 K). In addition, where the note is “323.15 K”, the mass density is given as 854.82 ± 0.23 kg/m3.
On to `CCCC[N+]1(C)CCCC1.FC(F)(F)C(F)(F)[P-](F)(F)(F)(C(F)(F)C(F)(F)F)C(F)(F)C(F)(F)F`, for which the mass density is, setting by setting: (293.15 K) 1588.56 ± 0.76 kg/m3; (298.15 K) 1583.15 ± 0.76 kg/m3; (303.15 K) 1577.67 ± 0.75 kg/m3; (308.15 K) 1572.16 ± 0.75 kg/m3; (313.15 K) 1566.62 ± 0.74 kg/m3; (318.15 K) 1561.06 ± 0.74 kg/m3. Besides, the mass density (323.15 K) came to 1555.48 ± 0.73 kg/m3.
